Laboratory results from patent US8785452B2, “Anti-infective compounds” (priority 2008, dated 2014).

Tested on: M. tuberculosis clinical isolates
Format: cell-based, Mycobacterium tuberculosis
Conditions: multi-drug-resistant and extensive-drug-resistant isolates

Structure (SMILES): Cc1cccn2c(=O)c(C=O)c(Nc3cccc(Cl)c3)nc12 [compound 133, 2-(3-Chlorophenylamino)-9-methyl-4-oxo-4H-pyrido[1,2-a]pyrimidine-3-carbaldehyde]
- activity (MIC values) against MDR and XDR clinical isolates, in words: within the micromolar range
